Literature values in US20130195986A1, “New Particles of Tetracyclines and Protecting Agent” (HOVIONE INTER LTD, priority 2010, published 2013).

System: staining of the teeth and bones and pigmentation of the thyroid gland
Conditions: rats; simultaneous administration of ascorbic acid (vitamin C) with minocycline

O=C1O[C@H]([C@@H](O)CO)C(O)=C1O [ascorbic acid]
staining of the teeth and bones and pigmentation of the thyroid gland: prevented staining of the teeth and bones and pigmentation of the thyroid gland
